Experimental data reported in patent US20140163026A1, “8-ETHYL-6-(ARYL)PYRIDO[2,3-D]PYRIMIDIN-7(8H)-ONES FOR THE TREATMENT OF NERVOUS SYSTEM DISORDERS AND CANCER” (Afraxis Holdings, Inc., priority 2011, published 2014).

Experiments:
Format in all cases: biochemical
PAK2 (PAK65) = PAK2 (PAK65) (Homo sapiens, UniProt Q13177); assay: In vitro PAK inhibition assay (SelectScreen, Ser/Thr 20 peptide)
Description: (§1) Compounds are screened in 1% DMSO (final) in the well. For 10 point titrations, 3-fold serial dilutions are conducted.
(§2) All Peptide/Kinase Mixtures are diluted to a 2× working concentration in the appropriate Kinase Buffer
The 2×PAK2 (PAK65)/Ser/Thr 20 mixture is prepared in 50 mM HEPES pH 7.5, 0.01% BRIJ-35, 10 mM MgCl2, 1 mM EGTA. The final 10 μL Kinase Reaction consists of 0.29-6 ng PAK2 (PAK65) and 2 μM Ser/Thr 20 in 50 mM HEPES pH 7.5, 0.01% BRIJ-35, 10 mM MgCl2, 1 mM EGTA.
(§3) This control yields 100% cleaved peptide in the Development Reaction.
(§4) The 100% Phosphorylation Control, which consists of a synthetically phosphorylated peptide of the same sequence as the peptide substrate, is designed to allow for the calculation of percent phosphorylation.
(§5) This control is designed to produce a 10-50%* phosphorylated peptide in the Kinase Reaction.
(§6) A known inhibitor control standard curve, 10 point titration, is run for each individual kinase on the same plate as the kinase to ensure the kinase is inhibited within an expected IC50 range previously determined.
(§7) Add the following solutions to a well in a 384-well plate: • 2.5 μL of 4× Test Compound OR (100 nL 100× Test Compound plus 2.4 μL kinase buffer) • 5 μL of 2× Peptide/Kinase (PAK) Mixture • 2.5 μL of 4×ATP Solution • 2. Shake the plate for 30-seconds • 3. Incubate the PAK Kinase Reaction at room temperature for 60-minutes • 4. Add 5 μL of Development Reagent Solution to each well • 5. Shake the plate for 30-seconds • 6. Incubate the Development Reaction for 60-minutes • 7. Determine the fluorescence using a fluorescence plate reader • 8. Analyze the fluorescence data
(§8) SelectScreen® Kinase Profiling Service uses XLfit from IDBS.
(§9) The representative IC50 value with a known inhibitor for each kinase was determined at the ATP bin nearest to the ATP Km app.

PAK1 = PAK1 (Homo sapiens, UniProt Q13153); assay: In vitro PAK inhibition assay (SelectScreen, Ser/Thr 19 peptide)
Chain of PAK1 (Q13153 whole entry): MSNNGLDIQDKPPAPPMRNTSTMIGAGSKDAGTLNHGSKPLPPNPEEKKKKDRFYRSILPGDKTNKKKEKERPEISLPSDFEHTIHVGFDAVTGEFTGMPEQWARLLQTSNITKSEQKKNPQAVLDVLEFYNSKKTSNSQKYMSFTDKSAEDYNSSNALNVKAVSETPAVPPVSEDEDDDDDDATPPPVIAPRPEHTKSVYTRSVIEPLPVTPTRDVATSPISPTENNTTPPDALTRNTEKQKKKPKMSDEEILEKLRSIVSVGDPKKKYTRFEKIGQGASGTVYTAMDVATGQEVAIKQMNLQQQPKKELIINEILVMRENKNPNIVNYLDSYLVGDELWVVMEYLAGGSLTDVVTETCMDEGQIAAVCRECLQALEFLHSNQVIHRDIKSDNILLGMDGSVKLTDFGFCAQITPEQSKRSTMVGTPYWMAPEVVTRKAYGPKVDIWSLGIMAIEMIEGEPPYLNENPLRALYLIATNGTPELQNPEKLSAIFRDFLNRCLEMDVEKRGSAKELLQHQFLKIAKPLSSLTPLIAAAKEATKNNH
Description: as §1, §2
The 2×PAK1/Ser/Thr 19 mixture is prepared in 50 mM HEPES pH 7.5, 0.01% BRIJ-35, 10 mM MgCl2, 1 mM EGTA.
as §3, §4, §5, §6, §7, §8, §9

PAK4 = PAK4 (Homo sapiens, UniProt O96013); assay: In vitro PAK inhibition assay (SelectScreen, Ser/Thr 20 peptide)
Chain of PAK4 (O96013 whole entry): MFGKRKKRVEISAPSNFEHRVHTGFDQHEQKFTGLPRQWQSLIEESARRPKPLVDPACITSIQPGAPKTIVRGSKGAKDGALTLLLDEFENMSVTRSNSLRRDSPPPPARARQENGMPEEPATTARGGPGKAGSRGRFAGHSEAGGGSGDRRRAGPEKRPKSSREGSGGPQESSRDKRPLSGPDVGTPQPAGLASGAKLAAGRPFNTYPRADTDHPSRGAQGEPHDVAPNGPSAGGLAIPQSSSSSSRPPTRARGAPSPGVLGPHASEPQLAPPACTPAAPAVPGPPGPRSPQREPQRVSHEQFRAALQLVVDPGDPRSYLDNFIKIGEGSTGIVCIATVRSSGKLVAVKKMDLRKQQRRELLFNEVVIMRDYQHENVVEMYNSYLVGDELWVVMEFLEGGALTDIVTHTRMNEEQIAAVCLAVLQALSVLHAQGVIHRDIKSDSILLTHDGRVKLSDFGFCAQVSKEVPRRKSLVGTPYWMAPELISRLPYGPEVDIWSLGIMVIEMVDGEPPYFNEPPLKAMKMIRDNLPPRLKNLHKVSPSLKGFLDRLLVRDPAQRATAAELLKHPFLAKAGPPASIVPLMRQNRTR
Description: as §1, §2
The 2×PAK4/Ser/Thr 20 mixture is prepared in 50 mM HEPES pH 7.5, 0.01% BRIJ-35, 10 mM MgCl2, 1 mM EGTA. The final 10 μL Kinase Reaction consists of 0.1-0.75 ng PAK4 and 2 μM Ser/Thr 20 in 50 mM HEPES pH 7.5, 0.01% BRIJ-35, 10 mM MgCl2, 1 mM EGTA. After the 1 hour Kinase Reaction incubation, 5 μL of a 1:256 dilution of Development Reagent A is added.
as §3, §4
The minimum Emission Ratio in a screen is established by the 0% Inhibition Control, which contains active kinase. This control is designed to produce a 10-50%* phosphorylated peptide in the Kinase Reaction.
as §6
as §7, with “Bar-coded Corning, low volume NBS, black 384-well plate (Corning Cat. #3676) • 1. Add the” for “Add the”
SelectScreen® Kinase Profiling Service uses XLfit from IDBS. The dose response curve is curve fit to model number 205 (sigmoidal dose-response model).
The table below provides specifications and data around each kinase. The representative IC50 value with a known inhibitor for each kinase was determined at the ATP bin nearest to the ATP Km app.

PAK3 = PAK3 (Homo sapiens, UniProt O75914); assay: as above
Chain of PAK3 (O75914 whole entry): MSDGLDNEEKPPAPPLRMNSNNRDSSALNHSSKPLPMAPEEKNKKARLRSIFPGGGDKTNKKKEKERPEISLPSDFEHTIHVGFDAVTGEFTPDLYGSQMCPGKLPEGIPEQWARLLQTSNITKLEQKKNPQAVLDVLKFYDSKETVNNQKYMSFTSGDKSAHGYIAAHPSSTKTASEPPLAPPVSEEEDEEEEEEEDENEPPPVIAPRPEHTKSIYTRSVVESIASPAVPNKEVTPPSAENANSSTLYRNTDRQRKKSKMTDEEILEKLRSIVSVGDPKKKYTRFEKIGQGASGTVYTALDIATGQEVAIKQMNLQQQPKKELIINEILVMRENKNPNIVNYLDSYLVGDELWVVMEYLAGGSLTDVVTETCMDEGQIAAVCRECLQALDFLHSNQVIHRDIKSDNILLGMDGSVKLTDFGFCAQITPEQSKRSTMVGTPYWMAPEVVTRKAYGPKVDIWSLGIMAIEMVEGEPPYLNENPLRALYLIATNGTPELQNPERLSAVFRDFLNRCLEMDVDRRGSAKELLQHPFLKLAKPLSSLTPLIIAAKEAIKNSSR
Description: as §1, §2
The 2×PAK3/Ser/Thr 20 mixture is prepared in 50 mM HEPES pH 7.5, 0.01% BRIJ-35, 10 mM MgCl2, 1 mM EGTA.
as §3, §4, §5, §6, §7, §8, §9

Chain of PAK2 (PAK65) (Q13177 whole entry): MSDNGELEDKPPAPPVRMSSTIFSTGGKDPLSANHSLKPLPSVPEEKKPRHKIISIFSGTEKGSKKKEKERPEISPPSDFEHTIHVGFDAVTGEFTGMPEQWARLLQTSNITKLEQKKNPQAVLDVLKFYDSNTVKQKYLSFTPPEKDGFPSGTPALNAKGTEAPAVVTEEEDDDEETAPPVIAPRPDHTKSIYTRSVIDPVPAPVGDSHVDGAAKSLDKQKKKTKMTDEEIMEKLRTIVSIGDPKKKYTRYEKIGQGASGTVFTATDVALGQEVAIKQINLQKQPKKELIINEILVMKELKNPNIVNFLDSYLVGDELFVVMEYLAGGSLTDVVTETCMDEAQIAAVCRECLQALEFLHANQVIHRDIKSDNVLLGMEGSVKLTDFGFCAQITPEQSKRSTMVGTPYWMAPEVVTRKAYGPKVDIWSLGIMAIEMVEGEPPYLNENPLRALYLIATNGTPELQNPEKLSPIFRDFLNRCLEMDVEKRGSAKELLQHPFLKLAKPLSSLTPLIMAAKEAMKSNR

Structure (SMILES) | IC50 (PAK2 (PAK65)) | IC50 (PAK1) | IC50 (PAK4) | IC50 (PAK3)
CCn1c(=O)c(-c2ccc(-c3cncnc3)cc2Cl)cc2cnc(Nc3ccc(N4CCN(C)CC4)cc3)nc21 | < 50 nM | < 50 nM | 500 to 5000 nM | < 50 nM
CCn1c(=O)c(-c2ccc(-c3ccncc3)cc2Cl)cc2cnc(Nc3ccc(N4CCN(C)CC4)cc3)nc21 | < 50 nM | < 50 nM | ≥ 5000 nM | < 50 nM
CCn1c(=O)c(-c2ccc(-c3cccnc3)cc2Cl)cc2cnc(Nc3ccc(N4CCN(C)CC4)cc3)nc21 | < 50 nM | < 50 nM | 500 to 5000 nM | < 50 nM
CCN1CCC(c2ccc(Nc3ncc4cc(-c5ccc(-c6cccnc6)cc5Cl)c(=O)n(CC)c4n3)cc2F)CC1 | < 50 nM | < 50 nM | 500 to 5000 nM | < 50 nM
CCn1c(=O)c(-c2ccc(-c3cccnc3C)cc2Cl)cc2cnc(Nc3ccc(C4CCNCC4)c(F)c3)nc21 | < 50 nM | < 50 nM | 500 to 5000 nM | 50 to 500 nM
CCn1c(=O)c(-c2ccc(-c3cccnc3)cc2Cl)cc2cnc(Nc3ccc(CN(C)C)cc3)nc21 | < 50 nM | < 50 nM | 500 to 5000 nM | < 50 nM
CCn1c(=O)c(-c2ccc(-c3cccnc3C)cc2Cl)cc2cnc(Nc3ccc(C4=CCNCC4)cc3)nc21 | < 50 nM | < 50 nM | 500 to 5000 nM | < 50 nM
CCn1c(=O)c(-c2ccc(-c3cccnc3F)cc2Cl)cc2cnc(Nc3ccc(C4=CCNCC4)cc3)nc21 | < 50 nM | < 50 nM | 50 to 500 nM | < 50 nM
CCn1c(=O)c(-c2ccc(-c3cnc(C)s3)cc2Cl)cc2cnc(Nc3ccc(C4=CCNCC4)cc3)nc21 | < 50 nM | < 50 nM | 500 to 5000 nM | < 50 nM
CCn1c(=O)c(-c2ccc(-c3ccnc(C(=O)NC)c3)cc2Cl)cc2cnc(Nc3ccc(CCN(C)C)cc3)nc21 | 50 to 500 nM | 50 to 500 nM | ≥ 5000 nM | 50 to 500 nM
CCn1c(=O)c(-c2ccc(-c3noc(C)n3)cc2Cl)cc2cnc(Nc3ccc(C4=CCNCC4)cc3)nc21 | < 50 nM | < 50 nM | 500 to 5000 nM | < 50 nM
CCn1c(=O)c(-c2ccc(-c3noc(C)n3)cc2Cl)cc2cnc(Nc3ccc(C4=CCN(C)CC4)cc3)nc21 | < 50 nM | < 50 nM | 500 to 5000 nM | < 50 nM
CCn1c(=O)c(-c2ccc(-c3ccnc(C(=O)NC)c3)cc2Cl)cc2cnc(Nc3ccc(C4CCNCC4)c(F)c3)nc21 | 50 to 500 nM | 50 to 500 nM | ≥ 5000 nM | > 5000 nM
CCn1c(=O)c(-c2ccc(-c3ccc(C)nc3)cc2Cl)cc2cnc(Nc3ccc(CCN(C)C)cc3)nc21 | < 50 nM | < 50 nM | 500 to 5000 nM | 50 to 500 nM
CCn1c(=O)c(-c2ccc(-c3cccnc3C)cc2Cl)cc2cnc(Nc3ccc(CCN(C)C)cc3)nc21 | < 50 nM | < 50 nM | ≥ 5000 nM | 50 to 500 nM
CCn1c(=O)c(-c2ccc(-c3cccnc3F)cc2Cl)cc2cnc(Nc3ccc(CCN(C)C)cc3)nc21 | < 50 nM | < 50 nM | 50 to 500 nM | < 50 nM

More lines, now with the values ahead:

IC50 (PAK2 (PAK65)) | IC50 (PAK1) | IC50 (PAK4) | IC50 (PAK3) | Structure (SMILES)
< 50 nM | < 50 nM | 500 to 5000 nM | 50 to 500 nM | CCn1c(=O)c(-c2ccc(-c3ccc(C)nc3)cc2Cl)cc2cnc(Nc3ccc(C4CCNCC4)cc3)nc21
50 to 500 nM | < 50 nM | 500 to 5000 nM | 50 to 500 nM | CCn1c(=O)c(-c2ccc(-c3ccnc(C)c3)cc2Cl)cc2cnc(Nc3ccc(C4CCNCC4)cc3)nc21
50 to 500 nM | < 50 nM | ≥ 5000 nM | 50 to 500 nM | Cc1ncccc1-c1ccc(-c2cc3cnc(Nc4ccc(C5CCNCC5)cc4)nc3n(C)c2=O)c(Cl)c1
< 50 nM | < 50 nM | ≥ 5000 nM | 50 to 500 nM | CCn1c(=O)c(-c2ccc(-c3ccc(C)nc3)cc2Cl)cc2cnc(Nc3ccc(C4CCN(C(C)C)CC4)cc3)nc21
< 50 nM | < 50 nM | ≥ 5000 nM | < 50 nM | CCn1c(=O)c(-c2ccc(-c3noc(C)n3)cc2Cl)cc2cnc(Nc3ccc(C4CCN5CCCC5C4)cc3)nc21 (centres unmarked)
< 50 nM | < 50 nM | 500 to 5000 nM | 50 to 500 nM | CCn1c(=O)c(-c2ccc(-c3ccc(C)nc3)cc2Cl)cc2cnc(Nc3ccc(C4CCNCC4)c(F)c3)nc21
< 50 nM | < 50 nM | 500 to 5000 nM | < 50 nM | CCn1c(=O)c(-c2ccc(-c3cccnc3F)cc2Cl)cc2cnc(Nc3ccc(C4=CCN(C)CC4)cc3)nc21
50 to 500 nM | 50 to 500 nM | 500 to 5000 nM | 50 to 500 nM | CCN1CCC(c2ccc(Nc3ncc4cc(-c5ccc(-c6ccnc(C(=O)NC)c6)cc5Cl)c(=O)n(CC)c4n3)cc2)CC1
< 50 nM | < 50 nM | 500 to 5000 nM | 50 to 500 nM | CCn1c(=O)c(-c2ccc(-c3ccc(C)nc3F)cc2Cl)cc2cnc(Nc3ccc(C4CCNCC4)cc3)nc21
50 to 500 nM | < 50 nM | ≥ 5000 nM | 50 to 500 nM | CCn1c(=O)c(-c2ccc(-c3cccnc3C)cc2Cl)cc2cnc(Nc3ccc(C4CCN5CCCC5C4)cc3)nc21 (centres unmarked)
< 50 nM | 50 to 500 nM | 500 to 5000 nM | 50 to 500 nM | CCn1c(=O)c(-c2ccc(-c3ccc(C)nc3F)cc2Cl)cc2cnc(Nc3ccc(C4CCN(C(C)C)CC4)cc3)nc21
50 to 500 nM | < 50 nM | ≥ 5000 nM | 50 to 500 nM | CCn1c(=O)c(-c2ccc(-c3cccnc3C)cc2Cl)cc2cnc(Nc3ccc(C4CCN(C(C)C)CC4)cc3)nc21
50 to 500 nM | 50 to 500 nM | 500 to 5000 nM | 50 to 500 nM | CCN1CCC(c2ccc(Nc3ncc4cc(-c5ccc(-c6ccc(C)nc6F)cc5Cl)c(=O)n(CC)c4n3)cc2)CC1
< 50 nM | < 50 nM | 500 to 5000 nM | < 50 nM | CCn1c(=O)c(-c2ccc(-c3ccc(C)nc3F)cc2Cl)cc2cnc(Nc3ccc(CCN(C)C)cc3)nc21
< 50 nM | < 50 nM | 500 to 5000 nM | < 50 nM | CCn1c(=O)c(-c2ccc(-c3cccnc3F)cc2Cl)cc2cnc(Nc3ccc(C4CCN(C(C)C)CC4)cc3)nc21
50 to 500 nM | < 50 nM | ≥ 5000 nM | 50 to 500 nM | CCN1CCC(c2ccc(Nc3ncc4cc(-c5ccc(-c6ccc(F)nc6C)cc5Cl)c(=O)n(CC)c4n3)cc2)CC1
< 50 nM | < 50 nM | 50 to 500 nM | < 50 nM | CCN1CCC(c2ccc(Nc3ncc4cc(-c5ccc(-c6cccnc6F)cc5Cl)c(=O)n(CC)c4n3)cc2)CC1
50 to 500 nM | < 50 nM | ≥ 5000 nM | 50 to 500 nM | CCn1c(=O)c(-c2ccc(-c3ccc(F)nc3C)cc2Cl)cc2cnc(Nc3ccc(C4CCNCC4)cc3)nc21
50 to 500 nM | 50 to 500 nM | 500 to 5000 nM | 50 to 500 nM | CCn1c(=O)c(-c2ccc(-c3ccc(C)nc3F)cc2Cl)cc2cnc(Nc3ccc(C4CCNCC4)c(F)c3)nc21
